Laboratory results from patent US20240116985A1, “STAPLED PEPTIDES AND METHODS THEREOF” (priority 2020, published 2024).
pIC50: −log10 of the molar value. Read-outs that look alike come from different tables or passages of the source.

Assays:
[1] = target: T1, full-length beta-Catenin (Uniprot ID P35222) (Homo sapiens, UniProt P35222); test: Fluorescence polarization IC50 (beta-catenin / 5FAM-TCF4 10-53 competition); format: binding
T1 construct: 10 nM full-length beta-Catenin (Uniprot ID P35222)
T1 sequence (P35222 1-781): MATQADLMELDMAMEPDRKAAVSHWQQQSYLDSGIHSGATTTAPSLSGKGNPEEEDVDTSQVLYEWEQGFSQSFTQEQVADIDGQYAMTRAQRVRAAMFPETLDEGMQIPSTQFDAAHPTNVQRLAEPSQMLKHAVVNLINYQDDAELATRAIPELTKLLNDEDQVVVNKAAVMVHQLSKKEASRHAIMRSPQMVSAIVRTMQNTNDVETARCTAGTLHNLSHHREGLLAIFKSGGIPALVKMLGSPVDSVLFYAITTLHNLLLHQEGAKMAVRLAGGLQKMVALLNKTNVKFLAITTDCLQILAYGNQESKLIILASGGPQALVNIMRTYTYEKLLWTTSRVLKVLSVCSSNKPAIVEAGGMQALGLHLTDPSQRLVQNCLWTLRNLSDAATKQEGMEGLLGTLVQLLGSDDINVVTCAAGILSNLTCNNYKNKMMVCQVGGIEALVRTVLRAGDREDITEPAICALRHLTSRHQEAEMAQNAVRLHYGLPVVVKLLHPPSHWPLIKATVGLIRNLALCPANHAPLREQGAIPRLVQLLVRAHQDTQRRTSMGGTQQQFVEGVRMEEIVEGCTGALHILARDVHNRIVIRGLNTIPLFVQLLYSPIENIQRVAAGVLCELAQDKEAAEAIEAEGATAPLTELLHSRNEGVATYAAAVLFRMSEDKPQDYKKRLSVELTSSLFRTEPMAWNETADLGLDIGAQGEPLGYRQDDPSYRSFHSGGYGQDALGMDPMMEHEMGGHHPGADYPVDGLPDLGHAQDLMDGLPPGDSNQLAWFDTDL

[2] = target: T2, beta-catenin/TCF4 engagement (Homo sapiens, UniProt P35222); test: Nano-BRET target engagement assay (B-cat-Halo & TCF4-Luc in HEK293 cells); format: cell-based; conditions: read-out: NanoBRET Abs IC50
T2 construct: expressed in transfected cells; host or cells: HEK293
T2 sequence (P35222 1-781): T1 sequence (P35222 1-781)

[3] = fluorescence polarization; read-out: beta-Catenin FP IC50

| Compound | pIC50 [1, 3] | pIC50 ([2]; absolute IC50) | pIC50 [2] | pIC50 ([1]; read-out: beta-Catenin FP IC50; fluorescence polarization) |
| --- | --- | --- | --- | --- |
| CC(=O)N1CCC[C@]12CC=CCCCC1(CCCC=CCCCOC(=O)N3CC[C@@](C(=O)N[C@@H](Cc4ccsc4)C(=O)N[C@@H](Cc4c[nH]c5ccccc45)C(=O)N[C@@H](CO)C(N)=O)(C3)NC(=O)[C@H](CC(C)C)NC(=O)[C@H](Cc3ccccc3)NC(=O)[C@H](C)NC(=O)[C@H](C)NC(=O)[C@H](CC(=O)O)NC(=O)[C@H](CC(=O)O)NC1=O)NC(=O)[C@H](CC(C)(C)C)NC(=O)[C@H](CC(=O)O)NC2=O (stereo partly drawn) [I-1432, Ac-PL3-Asp-Npg-B5-Asp-Asp-Ala-Ala-Phe-Leu-PyrS2-3Thi-Trp-Ser-NH2] | 7.57 | 4.84 |  |  |
| CC(=O)N1CCC[C@]12CC=CCCCC1(CCCC=CCCCOC(=O)N3CC[C@@](C(=O)N[C@@H](Cc4ccsc4)C(=O)N[C@@H](Cc4csc5ccccc45)C(=O)N[C@@H](C)C(N)=O)(C3)NC(=O)[C@H](CC(C)C)NC(=O)[C@H](Cc3ccccc3)NC(=O)[C@@H](C)NC(=O)[C@H](C)NC(=O)[C@H](Cc3cccc(C(=O)O)c3)NC(=O)[C@H](CC(=O)O)NC1=O)NC(=O)[C@H](CC(C)(C)C)NC(=O)[C@H](CC(=O)O)NC2=O (stereo partly drawn) [I-2096, Ac-PL3-Asp-Npg-B5-Asp-3COOHF-Ala-dAla-Phe-Leu-PyrS2-3Thi-BztA-Ala-NH2] | 7.10 |  | < 4.70 |  |
| CC(=O)N1CCC[C@]12CC=CCCCC1(CCCC=CCCCOC(=O)N3CC[C@@](C(=O)N[C@@H](Cc4ccsc4)C(=O)N[C@@H](Cc4csc5ccccc45)C(=O)N[C@@H](CCC(N)=O)C(N)=O)(C3)NC(=O)[C@H](CC(C)C)NC(=O)[C@H](Cc3ccccc3)NC(=O)[C@H](C)NC(=O)[C@H](C)NC(=O)[C@H](CO)NC(=O)[C@H](CC(=O)O)NC1=O)NC(=O)[C@H](CC(C)(C)C)NC(=O)[C@H](CC(=O)O)NC2=O (stereo partly drawn) [I-1443, Ac-PL3-Asp-Npg-B5-Asp-Ser-Ala-Ala-Phe-Leu-PyrS2-3Thi-BztA-Gln-NH2] | 7.62 | 5.02 |  |  |
| CC(=O)N1CCC[C@]12CC=CCCCC1(CCCC=CCCCOC(=O)N3CC[C@@](C(=O)N[C@@H](Cc4ccsc4)C(=O)N[C@@H](Cc4csc5ccccc45)C(=O)N[C@@H](CCC(N)=O)C(N)=O)(C3)NC(=O)[C@H](CCC(=O)N3CCOCC3)NC(=O)[C@H](Cc3ccccc3)NC(=O)[C@H](C)NC(=O)[C@H](C)NC(=O)[C@H](CN(CC(=O)O)CC(F)(F)F)NC(=O)[C@H](CC(=O)O)NC1=O)NC(=O)[C@H](CC(C)(C)C)NC(=O)[C@H](CC(=O)O)NC2=O (stereo partly drawn) [I-1943, Ac-PL3-Asp-Npg-B5-Asp-TfeGA-Ala-Ala-Phe-[Morph]GlnR-PyrS2-3Thi-BztA-Gln-NH2] | 8.15 |  | 5.42 |  |
| CC(=O)N1CCC[C@]12CC=CCCCC1(CCCC=CCCCOC(=O)N3CC[C@@](C(=O)N[C@@H](Cc4ccsc4)C(=O)N[C@@H](Cc4csc5ccccc45)C(=O)N[C@@H](CCC(N)=O)C(N)=O)(C3)NC(=O)[C@H](CC(C)C)NC(=O)[C@H](Cc3ccccc3)NC(=O)[C@H](C)NC(=O)[C@H](C)NC(=O)[C@H](CCC(=O)OCCSSc3ccccc3)NC(=O)[C@H](CC(=O)O)NC1=O)NC(=O)[C@H](CC(C)(C)C)NC(=O)[C@H](CC(=O)O)NC2=O (stereo partly drawn) [I-1958, Ac-PL3-Asp-Npg-B5-Asp-[EtSSPh]GluE-Ala-Ala-Phe-Leu-PyrS2-3Thi-BztA-Gln-NH2] |  |  | < 4.70 | 5.81 |
| CC(=O)N1CCC[C@]12CCCCCCC1(CCCCCCOC(=O)N3CC[C@@](C(=O)N[C@@H](Cc4ccsc4)C(=O)N[C@@H](Cc4csc5ccccc45)C(=O)N[C@@H](CCC(N)=O)C(N)=O)(C3)NC(=O)[C@H](CC(C)C)NC(=O)[C@H](Cc3ccccc3)NC(=O)[C@H](C)NC(=O)[C@H](C)NC(=O)[C@H](CC(=O)O)NC(=O)[C@H](CC(=O)O)NC1=O)NC(=O)[C@H](CC(C)(C)C)NC(=O)[C@H](CC(=O)O)NC2=O (stereo partly drawn) [I-1824, Ac-PL3-Asp-Npg-B5-Asp-Asp-Ala-Ala-Phe-Leu-PyrS-3Thi-BztA-Gln-NH2] | 7.00 | < 4.70 |  |  |
| CC(=O)N1CCC[C@]12CC=CCCCC1(CCCC=CCCCOC(=O)N3CC[C@@](C(=O)N[C@@H](Cc4ccsc4)C(=O)N[C@@H](Cc4csc5ccccc45)C(=O)N[C@@H](CC(N)=O)C(N)=O)(C3)NC(=O)[C@H](CC(C)C)NC(=O)[C@H](Cc3ccccc3)NC(=O)[C@H](C)NC(=O)[C@H](C)NC(=O)[C@H](CC(=O)O)NC(=O)[C@H](CC(=O)O)NC1=O)NC(=O)[C@H](CC(C)(C)C)NC(=O)[C@H](CC(=O)O)NC2=O (stereo partly drawn) [I-1492, Ac-PL3-Asp-Npg-B5-Asp-Asp-Ala-Ala-Phe-Leu-PyrS2-3Thi-BztA-Asn-NH2] | 8.30 | 5.14 |  |  |
| CC(=O)N1CCC[C@]12CC=CC[C@@](C)(C(=O)N[C@@H](CC(=O)O)C(=O)N[C@@H](CC(=O)O)C(=O)N[C@@H](C)C(=O)N[C@@H](C)C(=O)N[C@@H](Cc1ccccc1)C(=O)N[C@@H](CC(C)C)C(=O)NC(C)(C)C(=O)N[C@@H](Cc1ccsc1)C(=O)N[C@@H](Cc1csc3ccccc13)C(=O)N[C@@H](CCC(N)=O)C(N)=O)NC(=O)[C@H](CC(C)(C)C)NC(=O)[C@H](CC(=O)O)NC2=O [I-1980, Ac-PL3-Asp-Npg-S3-Asp-Asp-Ala-Ala-Phe-Leu-Aib-3Thi-BztA-Gln-NH2] | 6.63 |  | < 4.70 |  |
| CC(=O)N1CCC[C@]12CC=CCCCC1(CCCC=CCCCOC(=O)N3CC[C@@](C(=O)N[C@@H](Cc4ccsc4)C(=O)N[C@@H](Cc4csc5ccccc45)C(=O)N[C@@H](Cc4c[nH]c5ccccc45)C(N)=O)(C3)NC(=O)[C@H](CC(C)C)NC(=O)[C@H](Cc3ccccc3)NC(=O)[C@H](C)NC(=O)[C@H](C)NC(=O)[C@H](CC(=O)O)NC(=O)[C@H](CC(=O)O)NC1=O)NC(=O)[C@H](CC(C)(C)C)NC(=O)[C@H](CC(=O)O)NC2=O (stereo partly drawn) [I-1497, Ac-PL3-Asp-Npg-B5-Asp-Asp-Ala-Ala-Phe-Leu-PyrS2-3Thi-BztA-Trp-NH2] | 7.30 | 4.94 |  |  |
| CC(=O)N1CCC[C@]12CC=CCCCC1(CCCC=CCCCOC(=O)N3CC[C@@](C(=O)N[C@@H](Cc4ccsc4)C(=O)N[C@@H](Cc4csc5ccccc45)C(=O)N[C@@H](CCC(N)=O)C(N)=O)(C3)NC(=O)[C@H](CCC(=O)N3CC[C@@H](N(C)C)C3)NC(=O)[C@H](Cc3ccccc3)NC(=O)[C@H](C)NC(=O)[C@H](C)NC(=O)[C@H](CN(CC(=O)O)CC(F)(F)F)NC(=O)[C@H](CC(=O)O)NC1=O)NC(=O)[C@H](CC(C)(C)C)NC(=O)[C@H](CC(=O)O)NC2=O (stereo partly drawn) [I-1939, Ac-PL3-Asp-Npg-B5-Asp-TfeGA-Ala-Ala-Phe-[RDMAPyr]GlnR-PyrS2-3Thi-BztA-Gln-NH2] | 8.00 |  | 4.68 |  |
| CC(=O)N1CCC[C@]12CC=CCCCC1(CCCC=CCCCOC(=O)N3CCC(C(=O)N[C@@H](Cc4ccccc4C(F)(F)F)C(=O)N[C@@H](Cc4csc5ccccc45)C(=O)N[C@@H](CCC(N)=O)C(N)=O)(CC3)NC(=O)[C@H](CC(C)C)NC(=O)[C@H](Cc3ccccc3)NC(=O)[C@H](C)NC(=O)[C@H](C)NC(=O)[C@H](Cc3cccc(C(=O)O)c3)NC(=O)[C@H](CC(=O)O)NC1=O)NC(=O)[C@H](CC(C)(C)C)NC(=O)[C@H](CC(=O)O)NC2=O (stereo partly drawn) [I-2582, Ac-PL3-Asp-Npg-B5-Asp-3COOHF-Ala-Ala-Phe-Leu-SPip2-2F3MeF-BztA-Gln-NH2] | 6.58 |  | < 4.70 |  |
| CC(=O)N1CCC[C@]12CC=CCCCC1(CCCC=CCCCOC(=O)N3CC[C@@](C(=O)N[C@@H](Cc4ccsc4)C(=O)N[C@@H](Cc4csc5ccccc45)C(=O)N[C@@H](CCC(N)=O)C(N)=O)(C3)NC(=O)[C@H](CC(C)C)NC(=O)[C@H](Cc3ccccc3)NC(=O)[C@H](C)NC(=O)[C@H](C)NC(=O)[C@H](CCn3cc(CC(=O)O)nn3)NC(=O)[C@H](CC(=O)O)NC1=O)NC(=O)[C@H](CC(C)(C)C)NC(=O)[C@H](CC(=O)O)NC2=O (stereo partly drawn) [I-2078, Ac-PL3-Asp-Npg-B5-Asp-[CH2CO2H]TriAzDab-Ala-Ala-Phe-Leu-PyrS2-3Thi-BztA-Gln-NH2] | 8.30 |  | 4.93 |  |
| CC(=O)N1CCC[C@]12CC=CCCCC1(CCCC=CCCCOC(=O)N3CC[C@@](C(=O)N[C@@H](Cc4ccccc4)C(=O)N[C@@H](Cc4csc5ccccc45)C(=O)N[C@@H](CCCCN)C(N)=O)(C3)NC(=O)[C@H](CC(C)C)NC(=O)[C@H](Cc3ccccc3)NC(=O)[C@H](C)NC(=O)[C@H](CCCCNC(C)C)NC(=O)[C@H](CCC(N)=O)NC(=O)[C@H](CC(=O)O)NC1=O)NC(=O)[C@H](CC1CCCCC1)NC(=O)[C@H](CC(N)=O)NC2=O (stereo partly drawn) [I-2350, Ac-PL3-Asn-Cha-B5-Asp-Gln-iPrLys-Ala-Phe-Leu-PyrS2-Phe-BztA-Lys-NH2] | 7.20 | < 4.70 |  |  |
| CC(=O)N1CCC[C@]12CC=CCCCC1(CCCC=CCCCCCC[C@@](C)(C(=O)N[C@@H](Cc3ccccc3)C(=O)N[C@@H](Cc3csc4ccccc34)C(=O)N[C@@H](CCC(N)=O)C(N)=O)NC(=O)[C@H](CCO)NC(=O)[C@H](Cc3ccccc3)NC(=O)[C@H](C)NC(=O)[C@H](C)NC(=O)[C@H](CCC(=O)O)NC(=O)[C@H](CC(=O)O)NC1=O)NC(=O)[C@H](CCC(C)C)NC(=O)[C@H](CC(=O)O)NC2=O (stereo partly drawn) [I-1538, Ac-PL3-Asp-Hleu-B5-Asp-Glu-Ala-Ala-Phe-Hse-S8-Phe-BztA-Gln-NH2] | 7.68 | 4.93 |  |  |
